According to patent publication US20230017045A1, “PYRIDINE AND PYRIMIDINE CARBOXYLATE HERBICIDES AND METHODS OF USE THEREOF” (Dow AgroSciences LLC, priority 2017, published 2023):

What follows are compounds tested on test plant species (assay: Post-emergent herbicidal activity test (greenhouse, foliar spray, visual growth reduction)). Settings: post-emergence, 336 h, ECHCG: barnyardgrass (Echinochloa crus-galli), 140 g ai/ha, 14 days after application, read-out: Visual Growth Reduction (%) 14 Days After Application, ECHCG.
Type: in vivo
Method: Post-emergent Test: Seeds or nutlets of the desired test plant species were planted in Sun Gro Metro-Mix® 360 planting mixture, which typically has a pH of 6.0 to 6.8 and an organic matter content of about 30 percent, in plastic pots with a surface area of 64 square centimeters. In some aspects, to ensure good germination and healthy plants, a fungicide treatment and/or other chemical or physical treatment was applied. The plants were grown for 7-21 d in a greenhouse with an approximate 15 h photoperiod which was maintained at 23-29° C. during the day and 22-28° C. during the night. Nutrients and water were added on a regular basis and supplemental lighting was provided with overhead metal halide 1000-Watt lamps as necessary. Plants were used for testing when they reached the first or second true leaf stage. A weighed amount, determined by the highest rate to be tested, of each test compound was placed in a 25 mL glass vial and was dissolved in 4 mL of a 97:3 v/v mixture of acetone and DMSO to obtain concentrated stock solutions. […] The concentrated stock solutions obtained were diluted with 20 mL of an aqueous mixture containing acetone, water, isopropyl alcohol, DMSO, […] crop oil concentrate, and X-77 surfactant in a 48.5:39:10:1.5:1.0:0.02 v/v ratio to obtain spray solutions containing the application rate. Compound requirements are based upon a 12 mL application volume at a rate of 187 liters per hectare (L/ha). Formulated compounds were applied to the plant material with an overhead Mandel track sprayer equipped with […] nozzles calibrated to deliver 187 L/ha over an application area of 0.64 square meters at a spray height of 18 inches (43 cm) above the average plant canopy height. Control plants were sprayed in the same manner with the solvent blank. The treated plants and control plants were placed in a greenhouse as described above and watered by subirrigation to prevent wash-off of the test compounds. After 14 d, the condition of the test plants as compared with that of the nontreated and control plants was determined visually and scored on a scale of 0 to 100 percent where 0 corresponds to no injury and 100 corresponds to complete control. In the reporting of the results, Table A: Percent Growth Reduction Conversion Table was used.

Row | SMILES | pest or weed control at 140 g/ha
1 | COC(=O)c1nc(-c2ccc(C(F)(F)F)c(C)c2)c(F)cc1Cl [F309, Methyl 3-chloro-5-fluoro-6-(3-methyl-4-(trifluoromethyl)phenyl)picolinate] | 0 to 29%
2 | COC(=O)c1nc(-c2ccc(C(F)(F)F)c3ccoc23)c(F)cc1Cl [F297, Methyl 3-chloro-5-fluoro-6-(4-(trifluoromethyl)benzofuran-7-yl) picolinate] | 0 to 29%

Same assay, conditions: post-emergence, 336 h, IPOHE: ivy-leaf morning glory (Ipomoea hederacea), 140 g ai/ha, 14 days after application, read-out: Visual Growth Reduction (%) 14 Days After Application, IPOHE

Row | SMILES | pest or weed control at 140 g/ha
3 | COC(=O)c1nc(-c2ccc(C(F)(F)F)c(C)c2)c(F)cc1Cl [F309, Methyl 3-chloro-5-fluoro-6-(3-methyl-4-(trifluoromethyl)phenyl)picolinate] | 0 to 29%
4 | COC(=O)c1nc(-c2ccc(C(F)(F)F)c3ccoc23)c(F)cc1Cl [F297, Methyl 3-chloro-5-fluoro-6-(4-(trifluoromethyl)benzofuran-7-yl) picolinate] | 95 to 100%

Same assay, conditions: post-emergence, 336 h, KCHSC: kochia (Bassia scoparia), 140 g ai/ha, 14 days after application, read-out: Visual Growth Reduction (%) 14 Days After Application, KCHSC

Row | SMILES | pest or weed control at 140 g/ha
5 | COC(=O)c1nc(-c2ccc(C(F)(F)F)c(C)c2)c(F)cc1Cl [F309, Methyl 3-chloro-5-fluoro-6-(3-methyl-4-(trifluoromethyl)phenyl)picolinate] | 0 to 29%
6 | COC(=O)c1nc(-c2ccc(C(F)(F)F)c3ccoc23)c(F)cc1Cl [F297, Methyl 3-chloro-5-fluoro-6-(4-(trifluoromethyl)benzofuran-7-yl) picolinate] | 45 to 59%

Same assay, conditions: post-emergence, 336 h, ORYSA: rice (Oryza sativa), 140 g ai/ha, 14 days after application, read-out: Visual Growth Reduction (%) 14 Days After Application, ORYSA

Row | SMILES | pest or weed control at 140 g/ha
7 | COC(=O)c1nc(-c2ccc(C(F)(F)F)c(C)c2)c(F)cc1Cl [F309, Methyl 3-chloro-5-fluoro-6-(3-methyl-4-(trifluoromethyl)phenyl)picolinate] | 0 to 29%
8 | COC(=O)c1nc(-c2ccc(C(F)(F)F)c3ccoc23)c(F)cc1Cl [F297, Methyl 3-chloro-5-fluoro-6-(4-(trifluoromethyl)benzofuran-7-yl) picolinate] | 0 to 29%

Same assay, conditions: post-emergence, 336 h, SETFA: giant foxtail (Setaria faberi), 140 g ai/ha, 14 days after application, read-out: Visual Growth Reduction (%) 14 Days After Application, SETFA

Row | SMILES | pest or weed control at 140 g/ha
9 | COC(=O)c1nc(-c2ccc(C(F)(F)F)c(C)c2)c(F)cc1Cl [F309, Methyl 3-chloro-5-fluoro-6-(3-methyl-4-(trifluoromethyl)phenyl)picolinate] | 0 to 29%
10 | COC(=O)c1nc(-c2ccc(C(F)(F)F)c3ccoc23)c(F)cc1Cl [F297, Methyl 3-chloro-5-fluoro-6-(4-(trifluoromethyl)benzofuran-7-yl) picolinate] | 60 to 74%

Same assay, conditions: post-emergence, 336 h, SORVU: grain sorghum (Sorghum vulgare), 140 g ai/ha, 14 days after application, read-out: Visual Growth Reduction (%) 14 Days After Application, SORVU

Row | SMILES | pest or weed control at 140 g/ha
11 | COC(=O)c1nc(-c2ccc(C(F)(F)F)c(C)c2)c(F)cc1Cl [F309, Methyl 3-chloro-5-fluoro-6-(3-methyl-4-(trifluoromethyl)phenyl)picolinate] | 0 to 29%
12 | COC(=O)c1nc(-c2ccc(C(F)(F)F)c3ccoc23)c(F)cc1Cl [F297, Methyl 3-chloro-5-fluoro-6-(4-(trifluoromethyl)benzofuran-7-yl) picolinate] | 60 to 74%

Same assay, conditions: post-emergence, 336 h, STEME: common chickweed (Stellaria media), 140 g ai/ha, 14 days after application, read-out: Visual Growth Reduction (%) 14 Days After Application, STEME

Row | SMILES | pest or weed control at 140 g/ha
13 | COC(=O)c1nc(-c2ccc(C(F)(F)F)c(C)c2)c(F)cc1Cl [F309, Methyl 3-chloro-5-fluoro-6-(3-methyl-4-(trifluoromethyl)phenyl)picolinate] | 0 to 29%
14 | COC(=O)c1nc(-c2ccc(C(F)(F)F)c3ccoc23)c(F)cc1Cl [F297, Methyl 3-chloro-5-fluoro-6-(4-(trifluoromethyl)benzofuran-7-yl) picolinate] | 0 to 29%

Same assay, conditions: post-emergence, 336 h, TRZAS: wheat, spring (Triticum aestivum), 140 g ai/ha, 14 days after application, read-out: Visual Growth Reduction (%) 14 Days After Application, TRZAS

Row | SMILES | pest or weed control at 140 g/ha
15 | COC(=O)c1nc(-c2ccc(C(F)(F)F)c(C)c2)c(F)cc1Cl [F309, Methyl 3-chloro-5-fluoro-6-(3-methyl-4-(trifluoromethyl)phenyl)picolinate] | 0 to 29%
16 | COC(=O)c1nc(-c2ccc(C(F)(F)F)c3ccoc23)c(F)cc1Cl [F297, Methyl 3-chloro-5-fluoro-6-(4-(trifluoromethyl)benzofuran-7-yl) picolinate] | 0 to 29%

Same assay, conditions: post-emergence, 336 h, blackgrass (Alopecurus myosuroides), 14 Days After Application, 140 g ai/ha, read-out: Visual Growth Reduction (%) ALOMY

Row | SMILES | pest or weed control at 140 g/ha
17 | COC(=O)c1nc(-c2ccc(C(F)(F)F)c(C)c2)c(F)cc1Cl [F309, Methyl 3-chloro-5-fluoro-6-(3-methyl-4-(trifluoromethyl)phenyl)picolinate] | 0 to 29%
18 | COC(=O)c1nc(-c2ccc(C(F)(F)F)c3ccoc23)c(F)cc1Cl [F297, Methyl 3-chloro-5-fluoro-6-(4-(trifluoromethyl)benzofuran-7-yl) picolinate] | 0 to 29%

Same assay, conditions: post-emergence, 336 h, canada thistle (Cirsium arvense), 14 Days After Application, 140 g ai/ha, read-out: Visual Growth Reduction (%) CIRAR

Row | SMILES | pest or weed control at 140 g/ha
19 | COC(=O)c1nc(-c2ccc(C(F)(F)F)c(C)c2)c(F)cc1Cl [F309, Methyl 3-chloro-5-fluoro-6-(3-methyl-4-(trifluoromethyl)phenyl)picolinate] | 0 to 29%
20 | COC(=O)c1nc(-c2ccc(C(F)(F)F)c3ccoc23)c(F)cc1Cl [F297, Methyl 3-chloro-5-fluoro-6-(4-(trifluoromethyl)benzofuran-7-yl) picolinate] | 85 to 94%

Same assay, conditions: post-emergence, 336 h, crabgrass (Digitaria sanguinalis), 14 Days After Application, 140 g ai/ha, read-out: Visual Growth Reduction (%) DIGSA

Row | SMILES | pest or weed control at 140 g/ha
21 | COC(=O)c1nc(-c2ccc(C(F)(F)F)c(C)c2)c(F)cc1Cl [F309, Methyl 3-chloro-5-fluoro-6-(3-methyl-4-(trifluoromethyl)phenyl)picolinate] | 0 to 29%
22 | COC(=O)c1nc(-c2ccc(C(F)(F)F)c3ccoc23)c(F)cc1Cl [F297, Methyl 3-chloro-5-fluoro-6-(4-(trifluoromethyl)benzofuran-7-yl) picolinate] | 75 to 84%

Same assay, conditions: post-emergence, 336 h, lambsquarters (Chenopodium album), 14 Days After Application, 140 g ai/ha, read-out: Visual Growth Reduction (%) CHEAL

Row | SMILES | pest or weed control at 140 g/ha
23 | COC(=O)c1nc(-c2ccc(C(F)(F)F)c(C)c2)c(F)cc1Cl [F309, Methyl 3-chloro-5-fluoro-6-(3-methyl-4-(trifluoromethyl)phenyl)picolinate] | 45 to 59%
24 | COC(=O)c1nc(-c2ccc(C(F)(F)F)c3ccoc23)c(F)cc1Cl [F297, Methyl 3-chloro-5-fluoro-6-(4-(trifluoromethyl)benzofuran-7-yl) picolinate] | 85 to 94%

Same assay, conditions: post-emergence, 336 h, redroot pigweed (Amaranthus retroflexus), 14 Days After Application, 140 g ai/ha, read-out: Visual Growth Reduction (%) AMARE

Row | SMILES | pest or weed control at 140 g/ha
25 | COC(=O)c1nc(-c2ccc(C(F)(F)F)c(C)c2)c(F)cc1Cl [F309, Methyl 3-chloro-5-fluoro-6-(3-methyl-4-(trifluoromethyl)phenyl)picolinate] | 45 to 59%
26 | COC(=O)c1nc(-c2ccc(C(F)(F)F)c3ccoc23)c(F)cc1Cl [F297, Methyl 3-chloro-5-fluoro-6-(4-(trifluoromethyl)benzofuran-7-yl) picolinate] | 85 to 94%

Same assay, conditions: post-emergence, 336 h, wild oat (Avena fatua), 14 Days After Application, 140 g ai/ha, read-out: Visual Growth Reduction (%) AVEFA

Row | SMILES | pest or weed control at 140 g/ha
27 | COC(=O)c1nc(-c2ccc(C(F)(F)F)c(C)c2)c(F)cc1Cl [F309, Methyl 3-chloro-5-fluoro-6-(3-methyl-4-(trifluoromethyl)phenyl)picolinate] | 0 to 29%
28 | COC(=O)c1nc(-c2ccc(C(F)(F)F)c3ccoc23)c(F)cc1Cl [F297, Methyl 3-chloro-5-fluoro-6-(4-(trifluoromethyl)benzofuran-7-yl) picolinate] | 0 to 29%

Same assay, conditions: post-emergence, 336 h, yellow nutsedge (Cyperus esculentus), 14 Days After Application, 140 g ai/ha, read-out: Visual Growth Reduction (%) CYPES

Row | SMILES | pest or weed control at 140 g/ha
29 | COC(=O)c1nc(-c2ccc(C(F)(F)F)c(C)c2)c(F)cc1Cl [F309, Methyl 3-chloro-5-fluoro-6-(3-methyl-4-(trifluoromethyl)phenyl)picolinate] | 0 to 29%
30 | COC(=O)c1nc(-c2ccc(C(F)(F)F)c3ccoc23)c(F)cc1Cl [F297, Methyl 3-chloro-5-fluoro-6-(4-(trifluoromethyl)benzofuran-7-yl) picolinate] | 0 to 29%
